One assay relates to HCC1937 cells. The assay can be described thus: BrdU pulse / PI bivariate FACS analysis of replisome stability. In kind it is cell-based. Particulars: mock siRNA-treated HCC1937 cells. The method, then:
BRCA1 has been implicated previously in the cellular response to IR, and BRCA1-deficient cells fail to activate Chk1 following IR exposure. The inventors investigated the effect of siRNA-mediated knockdown of Claspin in HCC1937 cells which lack functional BRCA1 and which have been previously shown to have a defective G2 checkpoint, failing to arrest on exposure to IR. […] The loss of BrdU incorporation was particularly observed in mid- to late-S phase cells.
(§1) HeLa or HCC1937 cells were seeded at 5×10^4 or 2×10^5 cells into 6-well tissue culture plates respectively, in 1 mL of their media and left for 24 hours. Cells were then washed twice with warm PBS and transfected twice over 48 hours with SMARTpool™ siRNA against Claspin (Dharmacon, Chicago, Ill., USA) at a concentration of 100 nM for 5 hours in serum free media (OptiMEM (Invitrogen)) using Oligofectamine (Invitrogen) as per manufacturer's instructions. After each transfection, cells were then washed once with warm PBS, and 1.5 mL of media added and then left for 19 hours. After transfection cells were trypsinized and seeded into 60 mm dishes and left in fresh media for 24 hours before being treated with either 0 or 2 mM HU for 24 hours. Alternatively cells were untreated, left in a flow cabinet for an equivalent time. […]
For orientation: A flow cytometer gives signals particle by particle.

Another assay has as its system HeLa cells. The description is as above. Type of assay: cell-based. Particulars: hydroxyurea 24 hr. The method, then: In order to evaluate the effect of Claspin depletion on replisome stability, the ability of Claspin-depleted cells to maintain functional replisomes in the continuous presence of imposed replicational stress was investigated (FIG. 1). To do this, cells were treated with buffer control or 2 mM hydroxyurea (HU) for 24 h, then exposed to a 30 min pulse of BrdU, prior to fixation and PI staining, and subsequent bivariate FACS analysis.
as §1

In a further assay the target is T1, TopBP1 (UniProt Q92547 1-1522).
T1 construct: Endogenous protein in HeLa whole cell extract
T1 sequence (Q92547 whole entry): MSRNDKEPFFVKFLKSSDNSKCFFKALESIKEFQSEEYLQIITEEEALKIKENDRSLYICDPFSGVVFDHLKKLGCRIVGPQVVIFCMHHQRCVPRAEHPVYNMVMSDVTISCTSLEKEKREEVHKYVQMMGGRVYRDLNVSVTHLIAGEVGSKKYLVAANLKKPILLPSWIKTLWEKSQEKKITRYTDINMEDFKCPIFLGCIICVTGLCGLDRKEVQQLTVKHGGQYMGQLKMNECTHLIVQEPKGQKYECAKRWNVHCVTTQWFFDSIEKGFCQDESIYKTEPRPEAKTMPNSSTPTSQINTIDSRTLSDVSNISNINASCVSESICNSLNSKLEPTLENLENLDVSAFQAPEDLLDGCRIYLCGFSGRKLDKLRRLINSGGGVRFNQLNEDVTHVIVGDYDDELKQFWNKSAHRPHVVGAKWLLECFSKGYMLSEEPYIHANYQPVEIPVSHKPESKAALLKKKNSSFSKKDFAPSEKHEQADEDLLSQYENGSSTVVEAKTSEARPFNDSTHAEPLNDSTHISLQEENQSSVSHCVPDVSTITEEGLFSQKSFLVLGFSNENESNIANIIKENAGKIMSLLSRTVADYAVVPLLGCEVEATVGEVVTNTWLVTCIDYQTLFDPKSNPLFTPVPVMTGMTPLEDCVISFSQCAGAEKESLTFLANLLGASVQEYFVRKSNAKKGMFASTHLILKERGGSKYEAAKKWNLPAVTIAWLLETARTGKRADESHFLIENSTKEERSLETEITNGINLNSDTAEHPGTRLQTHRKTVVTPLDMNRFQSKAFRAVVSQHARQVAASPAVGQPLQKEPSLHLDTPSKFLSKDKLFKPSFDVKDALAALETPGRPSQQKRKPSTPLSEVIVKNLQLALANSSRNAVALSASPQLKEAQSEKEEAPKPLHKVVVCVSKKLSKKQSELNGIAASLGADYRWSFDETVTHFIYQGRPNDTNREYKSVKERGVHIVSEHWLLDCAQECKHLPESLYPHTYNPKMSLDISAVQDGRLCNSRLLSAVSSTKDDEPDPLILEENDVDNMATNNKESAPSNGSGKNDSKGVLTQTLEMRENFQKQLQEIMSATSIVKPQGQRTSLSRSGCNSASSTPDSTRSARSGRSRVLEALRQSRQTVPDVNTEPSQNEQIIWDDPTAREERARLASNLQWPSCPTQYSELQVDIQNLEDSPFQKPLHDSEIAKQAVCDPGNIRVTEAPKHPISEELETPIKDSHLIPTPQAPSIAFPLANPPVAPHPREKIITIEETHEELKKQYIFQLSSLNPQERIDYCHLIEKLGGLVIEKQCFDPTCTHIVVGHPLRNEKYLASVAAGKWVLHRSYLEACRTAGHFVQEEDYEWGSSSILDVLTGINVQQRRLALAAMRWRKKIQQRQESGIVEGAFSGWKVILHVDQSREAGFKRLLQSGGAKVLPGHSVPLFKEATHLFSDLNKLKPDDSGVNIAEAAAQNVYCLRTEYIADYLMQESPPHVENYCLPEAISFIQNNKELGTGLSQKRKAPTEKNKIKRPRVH
The assay can be described thus: co-immunoprecipitation with anti-Chk1 antibody from HeLa cell extracts, immunoblot. The method, then:
(§2) Cells were then lysed through 3 freeze/thaw cycles, and clarified by centrifugation at 14,000 rpm for 5 mins at 4° C. The supernatant was then removed and assayed for concentration by Bradford assay (Pierce) and aliquots stored at −70° C. until use. For immunoblotting 25-60 μg of whole cell extract was used per well in Laemmli SDS loading buffer. Extracts were separated on 6-12% SDS-PAGE gels before being transferred to nitrocellulose membrane (Protran) for probing. Membranes were blocked in either 5% Marvel milk or 5% BSA according to antibody manufacturer's guidelines. Membranes were then washed before being probed with primary antibodies diluted in blocking buffer. […] Secondary antibodies were anti-rabbit IgG-HRP, anti-sheep IgG-HRP and anti-mouse IgG-HRP (Jackson Immunologicals) and bands were detected using enhanced chemiluminescence (ECL) (Amersham Pharmacia) and autoradiographic film (FUJI film).
(§3) Immunoprecipitation (IP) as carried out with 500 μg to 1 mg of whole cell extract per IP. […] Complexes isolated were then analysed by immunoblotting.

In another assay the target is T2, MDC1 (UniProt Q14676 1-2089).
T2 construct: Endogenous protein in HeLa whole cell extract
T2 sequence (Q14676 whole entry): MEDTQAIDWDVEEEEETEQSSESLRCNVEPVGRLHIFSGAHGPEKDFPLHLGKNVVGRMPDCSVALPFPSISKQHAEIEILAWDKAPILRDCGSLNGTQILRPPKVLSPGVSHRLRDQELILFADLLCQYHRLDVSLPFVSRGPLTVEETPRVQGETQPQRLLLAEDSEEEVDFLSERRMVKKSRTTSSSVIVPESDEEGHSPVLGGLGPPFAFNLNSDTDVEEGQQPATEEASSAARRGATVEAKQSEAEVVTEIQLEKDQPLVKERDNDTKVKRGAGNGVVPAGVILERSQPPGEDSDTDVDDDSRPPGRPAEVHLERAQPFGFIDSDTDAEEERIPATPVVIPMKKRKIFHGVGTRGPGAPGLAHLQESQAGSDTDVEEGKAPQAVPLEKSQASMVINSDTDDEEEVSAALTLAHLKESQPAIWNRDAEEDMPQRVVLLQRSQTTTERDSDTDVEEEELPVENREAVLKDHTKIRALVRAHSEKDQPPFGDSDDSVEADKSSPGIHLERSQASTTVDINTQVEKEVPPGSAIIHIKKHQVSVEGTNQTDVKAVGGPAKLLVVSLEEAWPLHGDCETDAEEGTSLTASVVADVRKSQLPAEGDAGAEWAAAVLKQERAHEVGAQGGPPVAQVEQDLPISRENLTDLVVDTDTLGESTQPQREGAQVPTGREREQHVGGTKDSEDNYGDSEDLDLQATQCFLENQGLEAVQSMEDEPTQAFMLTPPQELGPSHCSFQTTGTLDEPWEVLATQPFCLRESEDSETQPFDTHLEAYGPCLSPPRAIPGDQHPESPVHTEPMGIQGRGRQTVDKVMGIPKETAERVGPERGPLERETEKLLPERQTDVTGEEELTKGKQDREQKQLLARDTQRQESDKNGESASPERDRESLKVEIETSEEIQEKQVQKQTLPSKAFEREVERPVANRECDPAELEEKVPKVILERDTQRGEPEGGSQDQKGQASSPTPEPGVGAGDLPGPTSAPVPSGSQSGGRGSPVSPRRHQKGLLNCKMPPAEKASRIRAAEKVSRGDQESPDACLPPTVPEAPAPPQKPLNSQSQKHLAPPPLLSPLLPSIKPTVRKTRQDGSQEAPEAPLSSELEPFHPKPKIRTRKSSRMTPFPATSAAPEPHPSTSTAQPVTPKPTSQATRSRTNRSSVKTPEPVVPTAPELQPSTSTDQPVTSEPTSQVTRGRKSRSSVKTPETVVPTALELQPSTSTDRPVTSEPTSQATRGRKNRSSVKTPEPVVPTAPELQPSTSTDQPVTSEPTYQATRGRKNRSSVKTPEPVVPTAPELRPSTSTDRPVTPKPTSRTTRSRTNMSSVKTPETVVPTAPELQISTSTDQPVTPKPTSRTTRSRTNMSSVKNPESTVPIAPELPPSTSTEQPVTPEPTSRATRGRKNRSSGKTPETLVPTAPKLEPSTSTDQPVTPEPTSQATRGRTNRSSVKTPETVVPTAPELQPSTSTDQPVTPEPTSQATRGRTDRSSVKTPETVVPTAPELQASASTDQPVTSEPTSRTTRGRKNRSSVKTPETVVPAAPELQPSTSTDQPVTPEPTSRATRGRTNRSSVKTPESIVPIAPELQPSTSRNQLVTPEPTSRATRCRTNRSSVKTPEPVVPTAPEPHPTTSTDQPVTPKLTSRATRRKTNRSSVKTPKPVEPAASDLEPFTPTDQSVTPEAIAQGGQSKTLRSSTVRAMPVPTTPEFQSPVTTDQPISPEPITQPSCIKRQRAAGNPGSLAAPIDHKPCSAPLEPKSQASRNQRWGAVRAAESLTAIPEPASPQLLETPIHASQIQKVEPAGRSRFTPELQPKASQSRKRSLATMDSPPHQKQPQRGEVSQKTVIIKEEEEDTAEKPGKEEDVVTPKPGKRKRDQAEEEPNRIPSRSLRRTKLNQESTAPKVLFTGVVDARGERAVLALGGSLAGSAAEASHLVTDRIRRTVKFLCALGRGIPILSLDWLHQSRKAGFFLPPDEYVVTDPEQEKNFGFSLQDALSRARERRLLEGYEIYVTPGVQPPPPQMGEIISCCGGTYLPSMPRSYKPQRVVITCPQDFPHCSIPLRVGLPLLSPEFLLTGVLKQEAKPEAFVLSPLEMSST
The description is as above. How it is done:
as §2, §3

The values that follow come from patent US20120121610A1, “THERAPEUTIC AGENT AND ASSAY” (priority 2009, published 2012).

As to `NC(=O)NO` [hydroxyurea], the “accumulation of cells in early S-phase” value in the assay with HCC1937 cells is given as “accumulation of cells in early S-phase”. Further, the “accumulation of cells in early S phase” value with HeLa cells is “significant accumulation of cells in early S phase”.

B1: Chk1 (serine/threonine protein kinase Chk1) (enzyme, UniProt O14757 1-476, looked up)
chain: MAVPFVEDWDLVQTLGEGAYGEVQLAVNRVTEEAVAVKIVDMKRAVDCPENIKKEICINKMLNHENVVKFYGHRREGNIQYLFLEYCSGGELFDRIEPDIGMPEPDAQRFFHQLMAGVVYLHGIGITHRDIKPENLLLDERDNLKISDFGLATVFRYNNRERLLNKMCGTLPYVAPELLKRREFHAEPVDVWSCGIVLTAMLAGELPWDQPSDSCQEYSDWKEKKTYLNPWKKIDSAPLALLHKILVENPSARITIPDIKKDRWYNKPLKKGAKRPRVTSGGVSESPSGFSKHIQSNLDFSPVNSASSEENVKYSSSQPEPRTGLSLWDTSPSYIDKLVQGISFSQPTCPDHMLLNSQLLGTPGSSQNPWQRLVKRMTRFFTKLDADKSYQCLKETCEKLGYQWKKSCMNQVTISTTDRRNNKLIFKVNLLEMDDKILVDFRLSKGDGLEFKRHFLKIKGKLIDIVSSQKIWLPAT
notes: Endogenous protein in HeLa whole cell extract; HeLa is a human cell line; also called Chk1 protein kinase
Turning to B1, the binding result with TopBP1 and in the assay with MDC1 was “no binding” throughout.
